Experimental data as given in PubChem BioAssay AID200 (DTP/NCI, 2004).
“And” between values parts separate entries of the source, which are not always exact repeats. Equal entries are not always repeated. Inconclusive results and toxic doses are left out.

Tested on: B6C3F1 mice, B16 melanoma ip, median survival T/C
Assay: NCI In Vivo Anticancer Drug Screen. Data for tumor model B16 Melanoma (intraperitoneal) in B6C3F1 mice
Details: endpoint: median survival time, higher = longer survival
Summary of the method: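 Mice bearing transplanted tumor were dosed with compound or vehicle, and survival was recorded. Activity is expressed as the treated-group measurement (T) divided by the vehicle control measurement (C).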

[1] = dose: 12.5 mg/kg/injection, schedule: Q01DX009 (ip), vehicle: saline
[2] = dose: 25.0 mg/kg/injection, schedule: Q01DX009 (ip), vehicle: saline
[3] = dose: 6.25 mg/kg/injection, schedule: Q01DX009 (ip), vehicle: Klucel (hydroxypropylcellulose) (HPC)
[4] = dose: 12.5 mg/kg/injection, schedule: Q01DX009 (ip), vehicle: Klucel (hydroxypropylcellulose) (HPC)
[5] = dose: 25.0 mg/kg/injection, schedule: Q01DX009 (ip), vehicle: Klucel (hydroxypropylcellulose) (HPC)

## CC(=O)OC1C(O)C(C)OC(OC2C(OC(=O)C3CCC4C(C3)OC3(CC(OC(=O)/C=C/c5ccccc5)C(C)CO3)C43CO3)OC(C)C(O)C2OC(C)=O)C1O (configuration not stated)
dose: 0.38 mg/kg/injection, schedule: Q03HX024 (ip), vehicle: other
  T/C: 111 % of control
dose: 0.75 mg/kg/injection, schedule: Q03HX024 (ip), vehicle: other
  T/C: 120 % of control
dose: 0.9 mg/kg/injection, schedule: Q01DX005 (iv), vehicle: other
  T/C: 111 % of control
dose: 1.0 mg/kg/injection, schedule: Q01DX009 (ip), vehicle: distilled water + alcohol
  T/C: 122 % of control
dose: 1.0 mg/kg/injection, schedule: Q01DX009 (ip), vehicle: other
  T/C: 120 % of control and 122 % of control
dose: 1.0 mg/kg/injection, schedule: Q01DX009 (ip), vehicle: saline + Tween-80 + alcohol
  T/C: 116 % of control
dose: 1.0 mg/kg/injection, schedule: Q01DX009 (ip), vehicle: saline + alcohol
  T/C: 110 % of control and 115 % of control
dose: 1.13 mg/kg/injection, schedule: Q03HX008 (ip), vehicle: other
  T/C: 123 % of control
dose: 1.8 mg/kg/injection, schedule: Q01DX005 (iv), vehicle: other
  T/C: 103 % of control
dose: 2.0 mg/kg/injection, schedule: Q01DX009 (ip), vehicle: distilled water + alcohol
  T/C: 158 % of control
dose: 2.0 mg/kg/injection, schedule: Q01DX009 (ip), vehicle: other
  T/C: 152 % of control
dose: 2.0 mg/kg/injection, schedule: Q01DX009 (ip), vehicle: saline + Tween-80 + alcohol
  T/C: 157 % of control
dose: 2.25 mg/kg/injection, schedule: Q01DX001 (iv), vehicle: other
  T/C: 114 % of control
dose: 2.25 mg/kg/injection, schedule: Q03HX008 (ip), vehicle: other
  T/C: 119 % of control
dose: 3.0 mg/kg/injection, schedule: Q04DX003 (ip), vehicle: other
  T/C: 122 % of control
dose: 3.6 mg/kg/injection, schedule: Q01DX005 (iv), vehicle: other
  T/C: 107 % of control
dose: 4.0 mg/kg/injection, schedule: Q01DX009 (ip), vehicle: distilled water + alcohol
  T/C: 184 % of control
dose: 4.0 mg/kg/injection, schedule: Q01DX009 (ip), vehicle: other
  T/C: 175 % of control
dose: 4.0 mg/kg/injection, schedule: Q01DX009 (ip), vehicle: saline + Tween-80 + alcohol
  T/C: 185 % of control
dose: 4.0 mg/kg/injection, schedule: Q01DX009 (ip), vehicle: saline
  T/C: 163 % of control
dose: 4.0 mg/kg/injection, schedule: Q01DX009 (oral), vehicle: other
  T/C: 102 % of control
dose: 4.0 mg/kg/injection, schedule: Q01DX009 (sc), vehicle: other
  T/C: 108 % of control
dose: 4.5 mg/kg/injection, schedule: Q01DX001 (ip), vehicle: other
  T/C: 117 % of control
dose: 4.5 mg/kg/injection, schedule: Q01DX001 (iv), vehicle: other
  T/C: 105 % of control
dose: 7.2 mg/kg/injection, schedule: Q01DX005 (iv), vehicle: other
  T/C: 119 % of control
dose: 8.0 mg/kg/injection, schedule: Q01DX009 (ip), vehicle: distilled water + alcohol
  T/C: 176 % of control
dose: 8.0 mg/kg/injection, schedule: Q01DX009 (ip), vehicle: other
  T/C: 158 % of control and 174 % of control
dose: 8.0 mg/kg/injection, schedule: Q01DX009 (ip), vehicle: saline + Tween-80 + alcohol
  T/C: 182 % of control
dose: 8.0 mg/kg/injection, schedule: Q01DX009 (ip), vehicle: saline
  T/C: 161 % of control
dose: 8.0 mg/kg/injection, schedule: Q01DX009 (oral), vehicle: other
  T/C: 104 % of control
dose: 8.0 mg/kg/injection, schedule: Q01DX009 (sc), vehicle: other
  T/C: 106 % of control
dose: 8.0 mg/kg/injection, schedule: Q02DX005 (ip), vehicle: saline + Tween-80 + alcohol
  T/C: 158 % of control
dose: 9.0 mg/kg/injection, schedule: Q01DX001 (ip), vehicle: other
  T/C: 114 % of control
dose: 9.0 mg/kg/injection, schedule: Q01DX001 (iv), vehicle: other
  T/C: 111 % of control
dose: 12.0 mg/kg/injection, schedule: Q04DX003 (ip), vehicle: saline + alcohol
  T/C: 124 % of control
dose: 14.4 mg/kg/injection, schedule: Q01DX005 (ip), vehicle: other
  T/C: 160 % of control
dose: 14.4 mg/kg/injection, schedule: Q01DX005 (iv), vehicle: other
  T/C: 113 % of control
dose: 16.0 mg/kg/injection, schedule: Q01DX009 (ip), vehicle: distilled water + alcohol
  T/C: 150 % of control
dose: 16.0 mg/kg/injection, schedule: Q01DX009 (ip), vehicle: other
  T/C: 177 % of control and 188 % of control
dose: 16.0 mg/kg/injection, schedule: Q01DX009 (ip), vehicle: saline + Tween-80 + alcohol
  T/C: 179 % of control
dose: 16.0 mg/kg/injection, schedule: Q01DX009 (oral), vehicle: other
  T/C: 102 % of control
dose: 16.0 mg/kg/injection, schedule: Q01DX009 (sc), vehicle: other
  T/C: 114 % of control
dose: 16.0 mg/kg/injection, schedule: Q02DX005 (ip), vehicle: saline + Tween-80 + alcohol
  T/C: 166 % of control
dose: 16.0 mg/kg/injection, schedule: Q02DX005 (ip), vehicle: saline + alcohol
  T/C: 155 % of control
dose: 18.0 mg/kg/injection, schedule: Q01DX001 (ip), vehicle: other
  T/C: 120 % of control
dose: 18.0 mg/kg/injection, schedule: Q01DX001 (iv), vehicle: other
  T/C: 117 % of control
dose: 32.0 mg/kg/injection, schedule: Q01DX009 (oral), vehicle: other
  T/C: 101 % of control
dose: 32.0 mg/kg/injection, schedule: Q01DX009 (sc), vehicle: other
  T/C: 112 % of control
dose: 32.0 mg/kg/injection, schedule: Q02DX005 (ip), vehicle: saline + alcohol
  T/C: 154 % of control
dose: 36.0 mg/kg/injection, schedule: Q01DX001 (ip), vehicle: other
  T/C: 119 % of control
dose: 96.0 mg/kg/injection, schedule: Q04DX003 (ip), vehicle: saline + Tween-80 + alcohol
  T/C: 94 % of control

## NC(=O)c1ccc(N)nc1
dose: 0.5 mg/kg/injection, schedule: Q01DX009 (ip), vehicle: saline
  T/C: 113 % of control
dose: 1.0 mg/kg/injection, schedule: Q01DX009 (ip), vehicle: saline
  T/C: 119 % of control
dose: 2.0 mg/kg/injection, schedule: Q01DX009 (ip), vehicle: saline
  T/C: 117 % of control

## [Cl][Sn]([c]1ccccc1)[c]1ccccc1
dose: 3.12 mg/kg/injection, schedule: Q01DX009 (ip), vehicle: saline
  T/C: 116 % of control
dose: 3.13 mg/kg/injection, schedule: Q01DX009 (ip), vehicle: saline
  T/C: 93 % of control
dose: 6.25 mg/kg/injection, schedule: Q01DX009 (ip), vehicle: saline
  T/C: 122 % of control and 106 % of control
[1]
  T/C: 107 % of control
[2]
  T/C: 118 % of control

## COc1cccc2c1C(=O)c1c(O)c3c(c(O)c1C2=O)C[C@@](O)(C(C)=O)C[C@@H]3OC1CC(N2CCCCC2)C(O)C(C)O1 (some centres not stated)
dose: 0.78 mg/kg/injection, schedule: Q01DX001 (ip), vehicle: water
  T/C: 105 % of control
dose: 1.56 mg/kg/injection, schedule: Q01DX001 (ip), vehicle: water
  T/C: 115 % of control and 121 % of control
dose: 3.12 mg/kg/injection, schedule: Q01DX001 (ip), vehicle: water
  T/C: 116 % of control and 121 % of control

## COc1ccc(C(Nc2ccccc2)C(=O)c2ccccc2)cc1 (configuration not stated)
[3]
  T/C: 102 % of control
[4]
  T/C: 96 % of control
[5]
  T/C: 96 % of control

## CCOC(=O)C1=C(C#N)C2(CCC(OCc3ccccc3)CC2)C(=O)O1 (configuration not stated)
[1]
  T/C: 105 % of control
dose: 12.5 mg/kg/injection, schedule: Q01DX009 (ip), vehicle: suspension in saline
  T/C: 105 % of control
[2]
  T/C: 101 % of control
dose: 25.0 mg/kg/injection, schedule: Q01DX009 (ip), vehicle: suspension in saline
  T/C: 96 % of control
dose: 50.0 mg/kg/injection, schedule: Q01DX009 (ip), vehicle: saline
  T/C: 94 % of control
dose: 50.0 mg/kg/injection, schedule: Q01DX009 (ip), vehicle: suspension in saline
  T/C: 107 % of control
dose: 100.0 mg/kg/injection, schedule: Q01DX009 (ip), vehicle: saline
  T/C: 111 % of control
dose: 100.0 mg/kg/injection, schedule: Q01DX009 (ip), vehicle: suspension in saline
  T/C: 109 % of control
dose: 200.0 mg/kg/injection, schedule: Q01DX009 (ip), vehicle: suspension in saline
  T/C: 107 % of control

## N=C(N)c1ccc(N=Nc2c(O)ccc3cc(O)ccc23)cc1
dose: 0.19 mg/kg/injection, schedule: Q01DX009 (ip), vehicle: Klucel (hydroxypropylcellulose) (HPC)
  T/C: 114 % of control
dose: 0.39 mg/kg/injection, schedule: Q01DX009 (ip), vehicle: Klucel (hydroxypropylcellulose) (HPC)
  T/C: 99 % of control
dose: 0.78 mg/kg/injection, schedule: Q01DX009 (ip), vehicle: Klucel (hydroxypropylcellulose) (HPC)
  T/C: 92 % of control
dose: 1.56 mg/kg/injection, schedule: Q01DX009 (ip), vehicle: Klucel (hydroxypropylcellulose) (HPC)
  T/C: 92 % of control
[3]
  T/C: 97 % of control
[4]
  T/C: 97 % of control
[5]
  T/C: 87 % of control
dose: 50.0 mg/kg/injection, schedule: Q01DX009 (ip), vehicle: Klucel (hydroxypropylcellulose) (HPC)
  T/C: 89 % of control
